Laboratory results taken from paper PMC7449217, “The FDA-Approved Drug Nelfinavir Inhibits Lytic Cell-Free but Not Cell-Associated Nonlytic Transmission of Human Adenovirus” (Antimicrobial Agents and Chemotherapy, 2020).
Where a name gives a salt, the structure may show the parent alone. Read-outs that look alike come from different tables or passages of the source.

Assays:
[1] = test system: HAdV-C2-dE3B-GFP-infected A549 cells; test: cellular impedance measurement (xCELLigence) of infected A549 cells, delay of cell death; type: cell-based, human; settings: 100 μM nelfinavir
Experimental: Impedance-based assays were performed using the xCELLigence system (Roche Applied Science and ACEA Biosciences) as described previously ([152], [153]), according to the manufacturer’s instructions ([177]), in a cell culture environment (37°C, 5% CO2, and 95% humidity) in duplicates. The 16-well E plates have a gold-plated sensor array embedded in their glass bottom by which the electrical impedance across each well bottom is measured. The impedance per well, termed the cell index (CI), is recorded as a dimensionless quantity. The background CI was assessed following the addition of 50 μl supplemented medium to each well and equilibration in the incubation environment. After 30 min of equilibration, 9,000 A549 cells in 50 μl supplemented medium were added per well, and measurement was started.
For the quantification of nelfinavir effects on the cytopathogenicity of HAdV-C2-dE3B-GFP compared to HAdV-C2-dE3B-GFP-dADP infection, 50 μl of the supernatant was removed 18 h later and replaced with nelfinavir- and virus-supplemented medium. […] The delay of infection-induced cytotoxicity was calculated as the time point at which the CI of the infected cells had decreased by 50% relative to its maximum. […]

[2] = test system: HAdV-C2-dE3B-GFP; design: method as in earlier work; settings: A549, 1.25 μM compound, normalized to neg. ctr., cited from earlier work

SMILES: Cc1c(O)cccc1C(=O)N[C@@H](CSc1ccccc1)[C@H](O)CN1C[C@H]2CCCC[C@H]2C[C@H]1C(=O)NC(C)(C)C [Nelfinavir, Nelfinavir mesylate]
- toxicity in impedance measurement of infected cells [1]: toxic
- Normalized mean read-outs: Infected nuclei ([2]; analysis EPFL): 0.20
- Normalized mean read-outs: Infection index ([2]; analysis EPFL): 0.27
- Normalized mean read-outs: Nuclei ([2]; analysis EPFL): 0.74
- Normalized mean read-outs: Plaques ([2]; analysis EPFL): 0.00
- Normalized mean read-outs: Virus intensity ([2]; analysis EPFL): 0.33 AU
- Normalized mean read-outs: Infected nuclei ([2]; analysis UZH): 0.20
- Normalized mean read-outs: Infection index ([2]; analysis UZH): 0.23
- Normalized mean read-outs: Nuclei ([2]; analysis UZH): 0.85
- Normalized mean read-outs: Plaques ([2]; analysis UZH): 0.0274
- Normalized mean read-outs: Virus intensity ([2]; analysis UZH): 0.30 AU
